Structures can show the parent of a compound that is named as a salt. A value given as a limit tells only on which side of the number the result lay.

The IC50 is the concentration needed to halve the response being measured.

This assay addresses recombinant full length HPK-1 enzyme (Homo sapiens (Human), UniProt Q92918). Nature of the assay: HPK-1 biochemical enzyme assay (ADP-Glo kinase inhibition). The note with it: recombinant full length HPK-1 6.8 nM, 10 μM ATP, 12.5 μM MBP, 30 mins at 25° C. The method, then:
HPK-1 biochemical enzyme assay
Compound inhibitory potency was measured in an HPK-1 kinase inhibition assay. Briefly, recombinant full length HPK-1 enzyme (6.8 nM) was incubated with 10 μM ATP and 12.5 μM swine myelin basic protein (MBP) for 30 mins. at 25° C. in the presence of various concentrations of test compound or vehicle in 40 mM Tris.Cl pH7.4 buffer containing 20 mM MgCl2, 50 μM DTT and 0.1 mg/mL BSA. Reactions were quenched and reaction mixtures were then analyzed by an ADP-Glo kit which measures the formed ADP. The percent inhibition was calculated from the substrate conversion considering no enzyme control reactions for 100% inhibition and vehicle only reactions for 0% inhibition. The compounds were dissolved in DMSO and evaluated at 10 concentrations to determine an IC50 value.
In the below table A denotes an HPK-1 IC50≤10 nM, B denotes an HPK-1 IC50>10 nM but≤100 nM and C denotes an HPK-1 IC50>100 nM but≤1000 nM.
Background: In ADP-Glo the light output rises with the ADP produced.

Chain of recombinant full length HPK-1 enzyme (Q92918 whole entry, species assumed): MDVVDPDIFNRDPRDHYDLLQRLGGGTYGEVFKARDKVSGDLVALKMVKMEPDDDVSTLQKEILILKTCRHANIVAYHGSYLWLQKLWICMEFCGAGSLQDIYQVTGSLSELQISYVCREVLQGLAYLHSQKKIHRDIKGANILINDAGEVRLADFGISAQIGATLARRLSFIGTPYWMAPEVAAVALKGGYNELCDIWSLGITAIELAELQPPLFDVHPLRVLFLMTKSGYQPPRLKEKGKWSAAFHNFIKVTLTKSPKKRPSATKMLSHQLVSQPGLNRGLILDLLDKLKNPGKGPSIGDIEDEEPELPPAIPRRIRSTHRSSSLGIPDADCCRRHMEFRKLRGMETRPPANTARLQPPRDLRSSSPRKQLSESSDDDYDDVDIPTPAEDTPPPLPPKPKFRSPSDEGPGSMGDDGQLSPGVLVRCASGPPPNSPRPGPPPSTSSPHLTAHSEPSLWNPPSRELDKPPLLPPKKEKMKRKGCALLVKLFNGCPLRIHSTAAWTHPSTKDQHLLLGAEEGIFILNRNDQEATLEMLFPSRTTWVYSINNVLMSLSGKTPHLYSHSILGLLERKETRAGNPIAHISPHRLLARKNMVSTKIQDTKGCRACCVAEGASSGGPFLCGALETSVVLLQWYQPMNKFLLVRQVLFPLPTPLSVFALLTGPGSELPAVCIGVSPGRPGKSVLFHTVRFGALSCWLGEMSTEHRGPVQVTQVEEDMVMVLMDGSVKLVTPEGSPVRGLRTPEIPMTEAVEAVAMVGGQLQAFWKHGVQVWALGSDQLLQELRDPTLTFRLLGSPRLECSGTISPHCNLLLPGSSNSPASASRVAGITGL

As to `Cc1c(Nc2cc[nH]c(=O)c2C(=O)Nc2ccc(N3CCN(C)CC3)cc2)cnc2c1NCC(C)(C)O2` [Example 172, N-(4-(4-methylpiperazin-1-yl)phenyl)-2-oxo-4-((3,3,8-trimethyl-2,3-dihydro-1H-pyrido[2,3-b][1,4]oxazin-7-yl)amino)-1,2-dihydropyridine-3-carboxamide], the IC50 is 10 to 100 nM.

As for `Cc1c(Nc2cc[nH]c(=O)c2C(=O)Nc2ccc(N3CCN(C(=O)C(C)N(C)C)CC3)cc2)cnc2c1NCCO2` (stereo not drawn) [Example 358, N-(4-(4-(dimethylalanyl)piperazin-1-yl)phenyl)-4-((8-methyl-2,3-dihydro-1H-pyrido[2,3-b][1,4]oxazin-7-yl)amino)-2-oxo-1,2-dihydropyridine-3-carboxamide], the IC50 lay within 10 to 100 nM. Then `Cc1c(Nc2cc[nH]c(=O)c2C(=O)Nc2ccc(N3CCN(C(=O)N4CC(F)(F)C4)CC3)cc2)cnc2c1NCCO2` [Example 319, N-(4-(4-(3,3-difluoroazetidine-1-carbonyl)piperazin-1-yl)phenyl)-4-((8-methyl-2,3-dihydro-1H-pyrido[2,3-b][1,4]oxazin-7-yl)amino)-2-oxo-1,2-dihydropyridine-3-carboxamide], with no more than 10 nM.

For `Cc1c(Nc2cc[nH]c(=O)c2C(=O)Nc2ccc(N3CCN(C(=O)C4CC(C)(C)C4)CC3)cc2)cnc2c1NCCO2` [Example 304, N-(4-(4-(3,3-dimethylcyclobutane-1-carbonyl)piperazin-1-yl)phenyl)-4-((8-methyl-2,3-dihydro-1H-pyrido[2,3-b][1,4]oxazin-7-yl)amino)-2-oxo-1,2-dihydropyridine-3-carboxamide], the IC50 is no more than 10 nM. Regarding `Cc1c(Nc2cc[nH]c(=O)c2C(=O)Nc2ccc3ncc(O)nc3c2)cnc2c1NCCO2` [Example 273, N-(3-hydroxyquinoxalin-6-yl)-4-((8-methyl-2,3-dihydro-1H-pyrido[2,3-b][1,4]oxazin-7-yl)amino)-2-oxo-1,2-dihydropyridine-3-carboxamide], the IC50 lay in the range of 100 to 1000 nM. Then `Cc1c(Nc2cc[nH]c(=O)c2C(=O)Nc2ccc(N3CCC(C(C)O)CC3)cc2)cnc2c1NCCO2` (stereo not drawn) [Example 302, N-(4-(4-(1-hydroxyethyl)piperidin-1-yl)phenyl)-4-((8-methyl-2,3-dihydro-1H-pyrido[2,3-b][1,4]oxazin-7-yl)amino)-2-oxo-1,2-dihydropyridine-3-carboxamide], with no more than 10 nM; and `Cc1c(Nc2cc[nH]c(=O)c2C(=O)Nc2ccc(N3CCN(C(C)C)CC3)c(F)c2)cnc2c1NCCO2` [Example 134, N-(3-fluoro-4-(4-isopropylpiperazin-1-yl)phenyl)-4-((8-methyl-2,3-dihydro-1H-pyrido[2,3-b][1,4]oxazin-7-yl)amino)-2-oxo-1,2-dihydropyridine-3-carboxamide], with no more than 10 nM. As for `Cc1c(Nc2cc[nH]c(=O)c2C(=O)Nc2ccc(N3CCN(C)C[C@@H]3C)cc2)cnc2c1NCCO2` [Example 266, (S)-N-(4-(2,4-dimethylpiperazin-1-yl)phenyl)-4-((8-methyl-2,3-dihydro-1H-pyrido[2,3-b][1,4]oxazin-7-yl)amino)-2-oxo-1,2-dihydropyridine-3-carboxamide], the figure is no more than 10 nM; as for `Cc1c(Nc2cc[nH]c(=O)c2C(=O)Nc2ccc(N3CCC(N4CCN(C(C)C)CC4)CC3)c(F)c2)cnc2c1NCC(C)O2` (stereo not drawn) [Example 326, 4-((3,8-dimethyl-2,3-dihydro-1H-pyrido[2,3-b][1,4]oxazin-7-yl)amino)-N-(3-fluoro-4-(4-(4-isopropylpiperazin-1-yl)piperidin-1-yl)phenyl)-2-oxo-1,2-dihydropyridine-3-carboxamide], no more than 10 nM. Consider `Cc1c(Nc2cc[nH]c(=O)c2C(=O)Nc2ccc(N3CCN(C4CC4)CC3)cc2)cnc2c1NCCO2` [Example 167, N-(4-(4-Cyclopropylpiperazin-1-yl)phenyl)-4-((8-methyl-2,3-dihydro-1H-pyrido[2,3-b][1,4]oxazin-7-yl)amino)-2-oxo-1,2-dihydropyridine-3-carboxamide], for which the IC50 was no more than 10 nM.

As to `CN1CCN(c2ccc(NC(=O)c3c(Nc4cnc5c(c4)NCCO5)cc[nH]c3=O)cc2)CC1` [Example 115, 4-((2,3-dihydro-1H-pyrido[2,3-b][1,4]oxazin-7-yl)amino)-N-(4-(4-methylpiperazin-1-yl)phenyl)-2-oxo-1,2-dihydropyridine-3-carboxamide.TFA], the IC50 lay within 10 to 100 nM.

On to `Cc1c(Nc2cc[nH]c(=O)c2C(=O)Nc2ccc(N3CCN(S(C)(=O)=O)CC3)cc2)cnc2c1NCCO2` [Example 262, 4-((8-methyl-2,3-dihydro-1H-pyrido[2,3-b][1,4]oxazin-7-yl)amino)-N-(4-(4-(methylsulfonyl)piperazin-1-yl)phenyl)-2-oxo-1,2-dihydropyridine-3-carboxamide], for which the IC50 is 10 to 100 nM. As for `COCCN1CCN(c2ccc(NC(=O)c3c(Nc4cnc5c(c4C)NCC(C)O5)cc[nH]c3=O)cc2F)CC1` (stereo not drawn) [Example 185, 4-((3,8-dimethyl-2,3-dihydro-1H-pyrido[2,3-b][1,4]oxazin-7-yl)amino)-N-(3-fluoro-4-(4-(2-methoxyethyl)piperazin-1-yl)phenyl)-2-oxo-1,2-dihydropyridine-3-carboxamide], the figure is no more than 10 nM; as for `Cc1c(Nc2cc[nH]c(=O)c2C(=O)Nc2ccc(-c3ccncc3)cc2)cnc2c1NCCO2` [Example 152, 4-((8-methyl-2,3-dihydro-1H-pyrido[2,3-b][1,4]oxazin-7-yl)amino)-2-oxo-N-(4-(pyridin-4-yl)phenyl)-1,2-dihydropyridine-3-carboxamide], 10 to 100 nM; as for `Cc1c(Nc2cc[nH]c(=O)c2C(=O)Nc2ccc3c(c2)OCCO3)cnc2c1NCCO2` [Example 230, N-(2,3-dihydrobenzo[b][1,4]dioxin-6-yl)-4-((8-methyl-2,3-dihydro-1H-pyrido[2,3-b][1,4]oxazin-7-yl)amino)-2-oxo-1,2-dihydropyridine-3-carboxamide], 10 to 100 nM. Then `Cc1c(Nc2cc[nH]c(=O)c2C(=O)Nc2ccc(N3CCN4CCOC[C@@H]4C3)cc2)cnc2c1NCCO2` [Example 327, (S)-N-(4-(hexahydropyrazino[2,1-c][1,4]oxazin-8(1H)-yl)phenyl)-4-((8-methyl-2,3-dihydro-1H-pyrido[2,3-b][1,4]oxazin-7-yl)amino)-2-oxo-1,2-dihydropyridine-3-carboxamide], with no more than 10 nM; and `Cc1c(Nc2cc[nH]c(=O)c2C(=O)Nc2ccc3cn[nH]c3c2)cnc2c1NCCO2` [Example 237, N-(1H-indazol-6-yl)-4-((8-methyl-2,3-dihydro-1H-pyrido[2,3-b][1,4]oxazin-7-yl)amino)-2-oxo-1,2-dihydropyridine-3-carboxamide], with 10 to 100 nM. For the molecule `Cc1c(Nc2cc[nH]c(=O)c2C(=O)Nc2ccc3nc(NC(=O)[C@@H]4C[C@@H]4F)sc3c2)cnc2c1NCCO2` [Example 296, N-(2-((1S,2S)-2-fluorocyclopropane-1-carboxamido)benzo[d]thiazol-6-yl)-4-((8-methyl-2,3-dihydro-1H-pyrido[2,3-b][1,4]oxazin-7-yl)amino)-2-oxo-1,2-dihydropyridine-3-carboxamide], the IC50 lay in the range of 100 to 1000 nM. As for `Cc1c(Nc2cc[nH]c(=O)c2C(=O)Nc2ccc(CN3CCS(=O)(=O)CC3)cc2)cnc2c1NCCO2` [Example 232, N-(4-((1,1-dioxidothiomorpholino)methyl)phenyl)-4-((8-methyl-2,3-dihydro-1H-pyrido[2,3-b][1,4]oxazin-7-yl)amino)-2-oxo-1,2-dihydropyridine-3-carboxamide], the figure is 10 to 100 nM; as for `Cc1c(Nc2cc[nH]c(=O)c2C(=O)Nc2ccc3c(c2)CCC(=O)N3)cnc2c1NCCO2` [Example 252, 4-((8-methyl-2,3-dihydro-1H-pyrido[2,3-b][1,4]oxazin-7-yl)amino)-2-oxo-N-(2-oxo-1,2,3,4-tetrahydroquinolin-6-yl)-1,2-dihydropyridine-3-carboxamide], 10 to 100 nM. As for `COc1cc(NC(=O)c2c(Nc3cnc4c(c3C)NCC(C)O4)cc[nH]c2=O)ccc1N1CCN(C)CC1` (stereo not drawn) [Example 203, 4-((3,8-dimethyl-2,3-dihydro-1H-pyrido[2,3-b][1,4]oxazin-7-yl)amino)-N-(3-methoxy-4-(4-methylpiperazin-1-yl)phenyl)-2-oxo-1,2-dihydropyridine-3-carboxamide], the figure is 10 to 100 nM; as for `CCN1CCN(c2ccc(NC(=O)c3c(Nc4cnc5c(c4C)NCCO5)cc[nH]c3=O)cc2F)CC1` [Example 135, N-(4-(4-ethylpiperazin-1-yl)-3-fluorophenyl)-4-((8-methyl-2,3-dihydro-1H-pyrido[2,3-b][1,4]oxazin-7-yl)amino)-2-oxo-1,2-dihydropyridine-3-carboxamide], no more than 10 nM; as for `Cc1c(Nc2cc[nH]c(=O)c2C(=O)Nc2ccc(N3CCCC(N)C3)cc2)cnc2c1NCCO2` (stereo not drawn) [Example 153, N-(4-(3-aminopiperidin-1-yl)phenyl)-4-((8-methyl-2,3-dihydro-1H-pyrido[2,3-b][1,4]oxazin-7-yl)amino)-2-oxo-1,2-dihydropyridine-3-carboxamide], no more than 10 nM. Turning to `CCCN1CCN(c2ccc(NC(=O)c3c(Nc4cnc5c(c4C)NCCO5)cc[nH]c3=O)cc2)CC1` [Example 399, 4-((8-methyl-2,3-dihydro-1H-pyrido[2,3-b][1,4]oxazin-7-yl)amino)-2-oxo-N-(4-(4-propylpiperazin-1-yl)phenyl)-1,2-dihydropyridine-3-carboxamide], the IC50 is no more than 10 nM.

The values are drawn from patent US20250282794A1 (CURADEV PHARMA LTD, priority 2022, published 2025).
